We go through 40 molecules from patent US7902182B2, “HIV integrase inhibitors” (priority 2005, dated 2011).

The test deals with T1, HIV-integrase (Human immunodeficiency virus type 1 group M subtype B, UniProt P12497).
T1 construct: Recombinant integrase (0.26 ng) was incubated with the beads
Briefly: HIV-Integrase Inhibition Activity (SPA bead strand transfer assay). It counts as biochemical. The following applies: recombinant integrase, biotin labeled substrate DNA on SPA beads, P33 labeled target DNA; read-out: Activity (IC50 against HIV-integrase). How it is done: HIV-Integrase InhibitionActivity. To evaluate in-vitro activity against HIV-integrase, 5 pmole of biotin labeled substrate DNA was bound to 100 μg of Streptavidin coated PVT SPA beads (Amersham Pharmacia Biotech). Recombinant integrase (0.26 ng) was incubated with the beads for 90 min at 37° C. Unbound enzyme was removed by washing the complex followed by addition of inhibitors and 0.1 fmol of P33 labeled target DNA. The reaction was stopped by adding EDTA to a final concentration of 10 mM. Samples were counted in TopCountNXT (Packard) and the CPM was used as a measure of integration. The reaction condition was as described in A. Engelman and R. Craigie, J. Virol. 69, 5908-5911 (1995). The sequences of substrate and target DNA were described in Nucleic Acid Research 22, 1121-1122 (1994).
Activity equal to A refers to a compound having IC50=0.002 to 0.10 μM while B and C denote compounds having IC50=0.1 to 1.0 μM and IC50≧1.0 μM respectively.
In general, IC50 refers to the midpoint of a concentration-inhibition curve. With `O=C(NCc1ccc(F)cc1S(=O)(=O)N1CCNCC1)c1nc2n(c(=O)c1O)CCOC21CCOCC1` [Example 1], the IC50 lay within 2 to 100 nM.
To `CN1CCN(S(=O)(=O)c2cc(F)ccc2CNC(=O)c2nc3n(c(=O)c2O)CCOC32CCOCC2)CC1` [Example 2] belongs 2 to 100 nM.
The result for `COC(=O)N1CCN(S(=O)(=O)c2cc(F)ccc2CNC(=O)c2nc3n(c(=O)c2O)CCOC32CCOCC2)CC1` [Example 3] reads 2 to 100 nM.
`CCN1CCN(S(=O)(=O)c2cc(F)ccc2CNC(=O)c2nc3n(c(=O)c2O)CCOC32CCOCC2)CC1` [Example 5]: the IC50 lay in the range of 2 to 100 nM.
In the case of `CN(C)C(=O)N1CCN(S(=O)(=O)c2cc(F)ccc2CNC(=O)c2nc3n(c(=O)c2O)CCOC32CCOCC2)CC1` [Example 7], the IC50 lay within 2 to 100 nM.
Take `CN(C)S(=O)(=O)N1CCN(S(=O)(=O)c2cc(F)ccc2CNC(=O)c2nc3n(c(=O)c2O)CCOC32CCOCC2)CC1` [Example 8]: the IC50 lay within 2 to 100 nM.
To `O=C(NCc1ccc(F)cc1S(=O)(=O)N1CCN(C(=O)N2CCOCC2)CC1)c1nc2n(c(=O)c1O)CCOC21CCOCC1` [Example 9] belongs 2 to 100 nM; to `CC(=O)N1CCN(S(=O)(=O)c2cc(F)ccc2CNC(=O)c2nc3n(c(=O)c2O)CCOC32CCOCC2)CC1` [Example 10], 2 to 100 nM; to `O=C(NCc1ccc(F)cc1S(=O)(=O)N1CCOCC1)c1nc2n(c(=O)c1O)CCOC21CCOCC1` [Example 11], 2 to 100 nM.
To `O=C(NCc1ccc(F)cc1S(=O)(=O)N1CCOCC1)c1nc2n(c(=O)c1O)CCOC21CCCC1` [Example 12] belongs 2 to 100 nM.
For the molecule `O=C(NCc1ccc(F)cc1S(=O)(=O)N1CCOCC1)c1nc2n(c(=O)c1O)CCCC21CCCC1` [Example 13], the IC50 was in the range of 2 to 100 nM.
To `CC1(C)OCCn2c1nc(C(=O)NCc1ccc(F)cc1S(=O)(=O)N1CCNCC1)c(O)c2=O` [Example 14] belongs 2 to 100 nM; to `CN1CCN(S(=O)(=O)c2cc(F)ccc2CNC(=O)c2nc3n(c(=O)c2O)CCOC3(C)C)CC1` [Example 15], 2 to 100 nM; to `CC1(C)OCCn2c1nc(C(=O)NCc1ccc(F)cc1S(=O)(=O)N1CCN(S(C)(=O)=O)CC1)c(O)c2=O` [Example 16], 2 to 100 nM.
On to `CC1(C)OCCn2c1nc(C(=O)NCc1ccc(F)cc1S(=O)(=O)N1CCN(C(=O)N3CCOCC3)CC1)c(O)c2=O` [Example 17], for which the IC50 was in the range of 2 to 100 nM.
Turning to `COC(=O)N1CCN(S(=O)(=O)c2cc(F)ccc2CNC(=O)c2nc3n(c(=O)c2O)CCOC3(C)C)CC1` [Example 18], the IC50 lay in the range of 2 to 100 nM.
To `CN(C)C(=O)N1CCN(S(=O)(=O)c2cc(F)ccc2CNC(=O)c2nc3n(c(=O)c2O)CCOC3(C)C)CC1` [Example 19] belongs 2 to 100 nM; to `CC(=O)N1CCN(S(=O)(=O)c2cc(F)ccc2CNC(=O)c2nc3n(c(=O)c2O)CCOC3(C)C)CC1` [Example 20], 2 to 100 nM.
The result for `CN(C)S(=O)(=O)N1CCN(S(=O)(=O)c2cc(F)ccc2CNC(=O)c2nc3n(c(=O)c2O)CCOC3(C)C)CC1` [Example 21] reads 2 to 100 nM; that for `O=C(NCc1ccc(F)cc1S(=O)(=O)N1CCNCC1)c1nc2n(c(=O)c1O)CCOC21CCCC1` [Example 22], 2 to 100 nM.
For the molecule `CN1CCN(S(=O)(=O)c2cc(F)ccc2CNC(=O)c2nc3n(c(=O)c2O)CCOC32CCCC2)CC1` [Example 23], the IC50 is 2 to 100 nM.
Consider `CN1CCN(S(=O)(=O)c2cc(F)ccc2CNC(=O)c2nc3n(c(=O)c2O)CCOC32CCC2)CC1` [Example 24], for which the IC50 was in the range of 2 to 100 nM.
As to `CC1(C)OCCn2c1nc(C(=O)NCc1ccc(F)cc1S(=O)(=O)N1CCC(O)CC1)c(O)c2=O` [Example 25], the IC50 lay in the range of 2 to 100 nM.
In the case of `CC1(C)OCCn2c1nc(C(=O)NCc1ccc(F)cc1S(=O)(=O)N1CCC1)c(O)c2=O` [Example 26], the IC50 is 2 to 100 nM.
The result for `CC1(C)OCCn2c1nc(C(=O)NCc1ccc(F)cc1S(=O)(=O)N1CCOCC1)c(O)c2=O` [Example 27] reads 2 to 100 nM; that for `CC1(C)OCCn2c1nc(C(=O)NCc1ccc(F)cc1S(=O)(=O)N1CCCCCC1)c(O)c2=O` [Example 28], 2 to 100 nM; that for `CC1(C)OCCn2c1nc(C(=O)NCc1ccc(F)cc1S(=O)(=O)N1CCC(O)C1)c(O)c2=O` (stereo not shown) [Example 29], 2 to 100 nM.
Turning to `CC1(C)OCCn2c1nc(C(=O)NCc1ccc(F)cc1S(=O)(=O)N1CCCCC1)c(O)c2=O` [Example 30], the IC50 is 2 to 100 nM.
For the molecule `CC1(C)OCCn2c1nc(C(=O)NCc1ccc(F)cc1S(=O)(=O)N1CCC3(CC1)OCCO3)c(O)c2=O` [Example 31], the IC50 is 2 to 100 nM.
Take `CC1(C)OCCn2c1nc(C(=O)NCc1ccc(F)cc1S(=O)(=O)N1CCC3(CCNC3=O)CC1)c(O)c2=O` [Example 32]: the IC50 is 2 to 100 nM.
`CC1(C)OCCn2c1nc(C(=O)NCc1ccc(F)cc1S(=O)(=O)N1CCCC1)c(O)c2=O` [Example 33]: the IC50 lay within 2 to 100 nM.
On to `CC(=O)N(C)C1CCN(S(=O)(=O)c2cc(F)ccc2CNC(=O)c2nc3n(c(=O)c2O)CCOC3(C)C)C1` (stereo not shown) [Example 34], for which the IC50 is 2 to 100 nM.
In the case of `CC1CN(S(=O)(=O)c2cc(F)ccc2CNC(=O)c2nc3n(c(=O)c2O)CCOC3(C)C)CC(C)N1` (stereo not shown) [Example 35], the IC50 lay within 2 to 100 nM.
The result for `CC1CN(S(=O)(=O)c2cc(F)ccc2CNC(=O)c2nc3n(c(=O)c2O)CCOC3(C)C)CC(C)N1C` (stereo not shown) [Example 36] reads 2 to 100 nM; that for `C[C@@H]1CN(S(=O)(=O)c2cc(F)ccc2CNC(=O)c2nc3n(c(=O)c2O)CCOC3(C)C)CCN1C(=O)OC(C)(C)C` [Example 37], 2 to 100 nM.
The result for `CS[C@@H]1COC[C@H]1N1CCN(S(=O)(=O)c2cc(F)ccc2CNC(=O)c2nc3n(c(=O)c2O)CCOC3(C)C)CC1` [Example 38] reads 2 to 100 nM.
The result for `CC1(C)OCCn2c1nc(C(=O)NCc1ccc(F)cc1S(=O)(=O)N1CCOC(CN3CCCC3)C1)c(O)c2=O` (stereo not shown) [Example 39] reads 2 to 100 nM.
For `CN(C)[C@@H]1COC[C@H]1N1CCN(S(=O)(=O)c2cc(F)ccc2CNC(=O)c2nc3n(c(=O)c2O)CCOC3(C)C)CC1` [Example 40], the IC50 lay in the range of 2 to 100 nM.
The result for `C[C@@H]1CN(S(=O)(=O)c2cc(F)ccc2CNC(=O)c2nc3n(c(=O)c2O)CCOC3(C)C)CCN1` [Example 41] reads 2 to 100 nM; that for `C[C@@H]1CN(S(=O)(=O)c2cc(F)ccc2CNC(=O)c2nc3n(c(=O)c2O)CCOC3(C)C)CCN1C` [Example 42], 2 to 100 nM.
